Data set [1] in a line: Water sorption / hygroscopicity (Dynamic Vapour Sorption). The class given is physicochemical. As to the method:
Water sorption of 5-[(2R,5S)-5-methyl-4-propylmorpholin-2-yl]pyridin-2-amine di-S-camsylate monohydrate) at 30° C. Sorption at 90% RH is 0.316%(w/w) of dry weight. This value relates to non-bound water and is in addition to that involved in the crystal lattice.
Dynamic Vapour Sorption (DVS): Automated Sorption Analyser Model DVS-1. Manufactured by Surface Measurements Systems Ltd. UK. Solid (10-20 mg) is exposed to controlled relative humidity (% RH) environment and the weight change recorded over time. The humidity was stepped from 0 to 90 to 0% RH in 15% RH intervals. A rate of sorption of 0.0005%/min needs to be achieved at each humidity before exposure to the next humidity in the method. When a sample is deliquescent equilibrium sorption is not always achieved.

The target in data set [2] is T1, dopamine D3 receptor (Homo sapiens, UniProt P35462). Conditions: according to WO2004/052372; cited from earlier work.
T1 sequence (P35462 whole entry, species assumed): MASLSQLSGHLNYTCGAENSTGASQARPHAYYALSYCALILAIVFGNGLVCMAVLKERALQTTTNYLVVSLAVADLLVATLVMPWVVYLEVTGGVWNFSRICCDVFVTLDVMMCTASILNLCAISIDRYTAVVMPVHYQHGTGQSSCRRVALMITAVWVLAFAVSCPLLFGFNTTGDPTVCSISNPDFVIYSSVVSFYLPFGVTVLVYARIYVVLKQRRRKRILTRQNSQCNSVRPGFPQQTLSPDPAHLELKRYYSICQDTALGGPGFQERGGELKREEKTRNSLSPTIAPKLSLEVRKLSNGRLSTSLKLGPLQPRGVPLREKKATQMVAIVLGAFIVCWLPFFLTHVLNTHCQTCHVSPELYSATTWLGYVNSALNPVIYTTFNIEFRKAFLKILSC
Data set [3] in a line: Hydrate kinetic stability at 0% RH (isothermal thermogravimetric analysis). The data set is classed as physicochemical. The procedure:
Isothermal gravimetric analysis of 5-[(2R,5S)-5-methyl-4-propylmorpholin-2-yl]pyridin-2-amine di-S-camsylate monohydrate at 40, 45, 80 and 85° C. Material was held at a selected temperature with a 0% RH flow of nitrogen. 5-[(2R,5S)-5-methyl-4-propylmorpholin-2-yl]pyridin-2-amine di S-camsylate salt dehydrates at 85° C., 0% RH. Many hydrates would be lost at 30° C./0% RH.
ThermoGravimetric Analysis (TGA): Manufactured by TA instruments, model 2950. Approximately 8 mg of the sample was held at analysis temperature in an open pan with 0% RH nitrogen flow for a minimum of 30 min. Results are representative of the kinetic stability of the hydrate over the period of time the sample was exposed.

Data set [4] in a line: Hydrate stability under reduced partial pressure (vacuum drying conditions). The class given is physicochemical. Conditions: reduced partial pressure at 40° C. The source says: Typically a pharmaceutical hydrate would be expected to dehydrate within a few hours of exposure to 0% RH. […] This is a much higher temperature than would normally be expected for a hydrated salt. Such kinetic stability is desirable for allowing the compound to be successfully milled prior to formulation. • Many hydrates are not stable to the harsh vacuum drying conditions required in the isolation of a pharmaceutical drug product. However, 5-[(2R,5S)-5-methyl-4-propylmorpholin-2-yl]pyridin-2-amine di-S-camsylate monohydrate would be stable in such a process as, upon exposure to reduced partial pressure at 40° C., the hydrate remains down to 10 mbar.

The target in data set [5] is T1, dopamine D3 receptor. Nature of the data set: Functional activity at the dopamine D3 receptor (methods of WO 2004/052372). The data set is classed as cell-based. The procedure: Activity at the dopamine D3 receptor may be determined using the methods described in WO 2004/052372, which is incorporated herein by reference. […] Selectivity is calculated as the D2 EC50 value divided by the D3 EC50 value.

Each structure is given as a SMILES string.

For the molecule `CCCN1C[C@@H](c2ccc(N)nc2)OC[C@@H]1C` (single isomer, unassigned), the deliquescence result in data set [1] is reported as “deliquescent”. The “D3 agonist activity (in words)” value in data set [2] is reported as “selective D3 agonist”.
Take `CCCN1C[C@@H](c2ccc(N)nc2)OC[C@@H]1C` [5-[(2R,5S)-5-methyl-4-propylmorpholin-2-yl]pyridine-2-amine, di((1S)-10-camphorsulfonate)monohydrate]: in data set [1], the deliquescence entry is reported as “not deliquescent” and the hygroscopicity result is “non-hygroscopic”. Moreover, the water sorption in data set [1] (90% RH, 30° C., non-bound water) is recorded as 0.316 %(w/w) of dry weight. In data set [3] (after 3.5 hours, 0% relative humidity (RH) at 30° C.), the “dehydration of the hydrate” value was “does not dehydrate”. In data set [3] (heating in a flow of 0% RH (nitrogen)), the “temperature at which the dehydration event was observed” value is 85 °C. Further, the “pressure down to which the hydrate remains” value in data set [4] is recorded as 10 mbar. Also, the 50% effective concentration (EC50) (commonly the concentration that produces a half-maximal response) in data set [5] was 21 nM. Moreover, the “selectivity for D3 over D2” value in data set [5] (D2 EC50 value divided by the D3 EC50 value) was 476 fold.

These data come from US7498329B2, “Salt form of dopamine agonist” (Pfizer Inc., priority 2005, dated 2009).
